Values after ≈ are worked out from the molar mass of the structure shown. Values joined by “and” are separate entries in the source; they are usually repeats but may differ in a detail not shown here. Identical values can stand only once. Like-named read-outs stand apart in the source and are kept apart here.
What was measured:
[1] = test system: hepatitis B; experiment: In vitro virus production test of hepatitis B, HEPG2 2.2.15; format: cell-based
[2] = test system: HEPG2 2.2.15; experiment: Toxicity values in the hepatitis B test; format: cell-based; design: Toxicity Values, sample / Toxicity Values, mean: unit not given here
[3] = test system: vero cells; experiment: Herpes simplex testing, toxicity (TC50); design: unit not given beside the values
[4] = test system: Curvularia lunata; experiment: Anti-fungal activity, MIC (NCCLS M-27A based); format: cell-based; conditions: growth inhibited or reduced at least 90%
Procedure: (§1) It was active against Cryptococcus neoformans and Curvularia lunata. The cidal activity for the C. neoformans is high enough that it is clear […] against this yeast. This test was conducted using a method based upon NCCLS reference method M-27A published in 1997. Solvent, medium and growth controls were set-up with the tests. Once these were read to validate the test performance, the QC fungi were read to insure they had expected results. These steps validated the test system. DMSO was used as a drug-chemical solvent. […] The 90% cut-off is necessary for azoles, which are static and not cidal. The […] or cidal level, was determined by sub-culturing a sample from each tube showing no growth.

[5] = test system: Cryptococcus neoformans; experiment: Anti-fungal activity, MFC (NCCLS M-27A based); format: cell-based; conditions: cidal level
Procedure: as §1

[6] = test system: Human Herpes Virus 8 (HHV8); experiment: Kaposi's sarcoma / HHV8 DNA copy number in TPA-induced BCBL-1 cells; format: cell-based; conditions: HHV8, BCBL-1 cells
Procedure: (§2) The DNA copy number and the toxicity value were measured and compared with Cidofovir. Kaposi's sarcoma (KS) is a cancer that is often found in people with weak immune systems, such as those taking immunosuppressants or those with AIDS. The exact nature of the disease is uncertain, but it is almost always found in association with HHV8.

[7] = Toxicity values in the HHV8 test; format: cell-based; conditions: human, TPA-induced BCBL-1 cells; read-out: TC50 (the source's name)
Procedure: (§3) Toxicity quantification involves the XTT-based evaluation. Assays were designed to characterize the long term effects of the compounds on virus production and to characterize the longer term effects of the compounds on virus production from chronically HIV infected cells.
as §2

[8] = test system: TPA-induced BCBL-1 cells; experiment: Toxicity values in the HHV8 test; format: cell-based
Procedure: as §3, §2

[9] = test system: BVDV; experiment: BVDV testing in vitro; format: cell-based, bovine diarrhea virus; conditions: first test
Text: DMSO had no effect, as expected.
BVDV is a bovine diarrhea virus and is a well known surrogate virus for hepatitis C which cannot be cultured in vitro.

In the case of `Nc1ccn([C@@H]2CS[C@H](CO)O2)c(=O)n1` [3TC, lamivudine, reference compound], the “DNA Copy Number (per 3 μl), sample” value ([1]; 0.1 μg/ml) is reported as 73.0 per 3 μl, the “% virus control” value ([1]; 1 μg/ml) is reported as 1.4% and the “DNA Copy Number (per 3 μl), mean” value ([1]; 1 μg/ml) is reported as 4.0 per 3 μl. For the same compound, the IC50 ([1]; Hepatitis B virus, HepG2 2.2.15) was 0.021 µg/mL (≈ 0.0916 µM), the IC50 ([1]; hepatitis B, HEPG2 2.2.15) was 0.089 µg/mL (≈ 0.388 µM) and the “% cell control” value ([2]; 0.0032 μg/ml) was 90.8%. For the same compound, the “Toxicity Values, mean” value ([2]; 0.0032 μg/ml) was 1.137, the “Toxicity Values, sample” value ([2]; 0.0032 μg/ml) was 1.173 and 1.230 and 1.009 and the “% cell control” value ([2]; 0.01 μg/ml) was 84.6%. For the same compound, the “Toxicity Values, mean” value ([2]; 0.01 μg/ml) was 1.060, the “Toxicity Values, sample” value ([2]; 0.01 μg/ml) was 1.081 and 1.099 and 1.001 and the “% cell control” value ([2]; 0.032 μg/ml) was 94.3%. For the same compound, the “Toxicity Values, mean” value ([2]; 0.032 μg/ml) was 1.181, the “Toxicity Values, sample” value ([2]; 0.032 μg/ml) was 1.153 and 1.316 and 1.074 and the “Toxicity Values, mean” value ([2]; 0.1 μg/ml) was 1.190. The “% cell control” value ([2]; 0.32 μg/ml) was 93.6%, the “Toxicity Values, mean” value ([2]; 0.32 μg/ml) was 1.172 and the “Toxicity Values, sample” value ([2]; 0.32 μg/ml) was 1.207 and 1.227 and 1.082. For the same compound, the “% cell control” value ([2]; 1 μg/ml) was 106.5%, the “Toxicity Values, mean” value ([2]; 1 μg/ml) was 1.334 and the “Toxicity Values, sample” value ([2]; 1 μg/ml) was 1.256 and 1.322 and 1.423. For the same compound, the TC50 ([2]; HEPG2 2.2.15) was > 1 µg/mL and the TC50 ([2]; HEPG2 2.2.15, replicate experiment) was > 1 µg/mL.
For `Nc1nc2c(ncn2COCCO)c(=O)[nH]1` [Acyclovir, reference compound], the TC50 [3] was > 1.
Work on `C[C@@H]1[C@H](O)[C@@H](C)/C=C/C=C/C=C/C=C/C=C/C=C/C=C/[C@H](O[C@@H]2O[C@H](C)[C@@H](O)[C@H](N)[C@@H]2O)C[C@@H]2O[C@](O)(C[C@@H](O)C[C@@H](O)[C@H](O)CC[C@@H](O)C[C@@H](O)CC(=O)O[C@H]1C)C[C@H](O)[C@H]2C(=O)O` [AmB, amphotericin B] yielded an MIC [4] of 0.06 µg/mL (≈ 0.0649 µM) and an MFC [5] of 0.5 µg/mL (≈ 0.541 µM).
For `Nc1ccn(C[C@@H](CO)OCP(=O)(O)O)c(=O)n1` [Cidofovir, reference compound], the TI [6] was “TI = 19.2”, the CC50 [7] was 21.1 µM and the “% cell control” value ([8]; 0.08 μM) was 83.9%. The “% cell control” value ([8]; 0.25 μM) was 90.1%, the “% cell control” value ([8]; 0.8 μM) was 82.8% and the “% cell control” value ([8]; 2.5 μM) was 75.0%. The “% cell control” value ([8]; 8 μM) was 69.3% and the “% cell control” value ([8]; 25 μM) was 4403%.
In the case of `CCC(C)n1ncn(-c2ccc(N3CCN(c4ccc(OCC5COC(Cn6cncn6)(c6ccc(Cl)cc6Cl)O5)cc4)CC3)cc2)c1=O` (stereo not shown) [Itra, Itraconazole], the MFC ([5]; read-out: MFC) is reported as 32 µg/mL (≈ 45.3 µM).
`COC(=O)Nc1nc2ccccc2[nH]1` [Methyl, methyl 1,2-benzmimidazole carbamate or benomyl] showed an MIC [4] of 0.03 µg/mL (≈ 0.157 µM) and an MFC [5] of 32 µg/mL (≈ 167 µM).
In the case of `NC(=O)c1ncn([C@@H]2O[C@H](CO)[C@@H](O)[C@H]2O)n1` [Ribavirin, reference compound], the “Antiviral Index (AI), TC50/IC50” value [9] is reported as 2.25.
With `c1ccc2[nH]c(-c3cscn3)nc2c1` [Thia, thiabendazole] the MIC ([4]; read-out: MIC) was 0.03 µg/mL (≈ 0.149 µM) and the MFC ([5]; read-out: MFC) was 32 µg/mL (≈ 159 µM).
